The nature of series [1]: Liposome leakage assay (carboxyfluorescein), PC liposomes. The following applies: dioleoylphosphatidylcholine 60 mol %/cholesterol 40 mol % liposomes, scale 100% = Triton X100 release, unit not in table; for CF leakage PC + NaCl: 10 mM Tris pH 7.4, with 150 mM NaCl; for CF leakage PC − NaCl: 10 mM Tris pH 7.4, without NaCl. In kind it is biochemical. The protocol: (§1) Dry lipid films were prepared by dissolving either dioleoylphosphatidylcholine (Avanti Polar Lipids, Alabaster, Ala.) (60 mol %) and cholesterol (Sigma, St Louis, Mo.) (40 mol %), or dioleoylphosphatidylcholine (30 mol %), dioleoylphosphatidic acid (Avanti Polar Lipids, Alabaster, Ala.) (30 mol %) and cholesterol (40 mol %) in chloroform, and then removing the solvent by evaporation under vacuum overnight. Subsequently, buffer solution containing 10 mM Tris, pH 7.4, either with or without additional 150 mM NaCl, was added together with 0.1 M carboxyfluorescein (CF) (Sigma, St Louis, Mo.). After hydration, the lipid mixture was subjected to eight freeze-thaw cycles consisting of freezing in liquid nitrogen and heating to 60° C. Unilamellar liposomes with a diameter of about 130 nm (as found with cryo-TEM; results not shown) were generated by multiple extrusions through polycarbonate filters (pore size 100 nm) mounted in a LipoFast miniextruder (Avestin, Ottawa, Canada). Untrapped carboxyfluorescein was then removed by filtration through two subsequent Sephadex G-50 columns with the relevant Tris buffer as eluent. Both extrusion and filtration was performed at 22° C. In the liposome leakage assay, the well known self-quenching of CF was used. Thus, at 100 mM CF is self-quenched, and the recorded fluorescence intensity from liposomes with entrapped CF is low. […] The CF release was determined by monitoring the emitted fluorescence at 520 nm from a liposome dispersion, ([…] in 10 mM Tris pH 7.4). An absolute leakage scale is obtained by disrupting the liposomes at the end of the experiment through addition of 0.8 mM Triton X100 (Sigma, St Louis, Mo.), thereby causing 100% release and dequenching of CF. A SPEX-fluorolog 1650 0.22-m double spectrometer (SPEX Industries, Edison, N.J.) was used for the liposome leakage assay (see Table 3, FIG. 3).

Series [2] can be described thus: Liposome leakage assay (carboxyfluorescein), PA liposomes. As to conditions: dioleoylphosphatidylcholine 30/dioleoylphosphatidic acid 30/cholesterol 40 mol % liposomes, unit not in table; for CF leakage PA + NaCl: 10 mM Tris pH 7.4, with 150 mM NaCl; for CF leakage PA − NaCl: 10 mM Tris pH 7.4, without NaCl. It is filed as biochemical. The protocol: as §1
Series [3] in a line: CD-spectroscopy, helical content. In kind it is physicochemical. The following applies: 10 mM Tris, pH 7.4, 37° C., peptide 10 μM; for Helical content, PA: PA liposome dispersion; for Helical content, PA / Helical content, PC: lipid 100 μM; for Helical content, PC: PC liposome dispersion; for Helical content, Buffer: buffer only. As for the experimental part:
The CD spectra of the peptides in solution were measured on a Jasco J-810 Spectropolarimeter (Jasco, U.K.). The measurements were performed at 37° C. in a 10 mm quartz cuvet under stirring and the peptide concentration was 10 μM. The effect of on peptide secondary structure of liposomes at a lipid concentration of 100 μM was monitored in the range 200-250 nm. The only peptide conformations observed under the conditions investigated were α-helix and random coil. The fraction of the peptide in α-helical conformation, Xα, is calculated from Xα=(A−Ac)/(Aα−Ac) (1)
where A is the recorded CD signal at 225 nm, and Aα and Ac are the CD signal at 225 nm for a reference peptide in 100% α-helix and 100% random coil conformation, respectively. 100% α-helix and 100% random coil references were obtained from 0.133 mM (monomer concentration) poly-L-lysine in 0.1 M NaOH and 0.1 M HCl, respectively. To account for the instrumental differences between measurements the background value (detected at 250 nm, where no peptide signal is present) was subtracted. Signals from the bulk solution were also corrected for (see Table 4).

For the next series, the system named is E.coli ATCC 25922. In words: Radial diffusion assay (RDA), E. coli. The following applies: zone of bacterial clearance in RDA; unit mm only in FIG. 1 legend, not in Table 2A. It is filed as cell-based, Escherichia coli. As for the experimental part: (§2) Escherichia coli ATCC25922, Pseudomonas aeruginosa ATCC27853, Staphylococcus aureus ATCC29213, Bacillus subtilis ATCC6633 bacterial isolates, and the fungal isolate Candida albicans ATCC90028, were obtained from the Department of Bacteriology, Lund University Hospital.
(§3) Radial diffusion assays (RDA) were performed essentially as described earlier (Lehrer, R. I., Rosenman, M., Harwig, S. S., Jackson, R. & Eisenhauer, P. (1991) Ultrasensitive assays for endogenous antimicrobial polypeptides, J Immunol Methods. 137, 167-73.).
(§4) Briefly, bacteria (E. coli, P. aeruginosa, S. aureus, B. subtilis) or fungi (C. albicans) were grown to mid-logarithmic phase in 10 ml of full-strength (3% w/v) trypticase soy broth (TSB) (Becton-Dickinson, Cockeysville, Md.). The microorganisms were washed once with 10 mM Tris, pH 7.4. 4×10^6 bacterial cfu or 1×10^5 fungal cfu was added to 5 ml of the underlay agarose gel, consisting of 0.03% (w/v) TSB, 1% (w/v) low-electroendoosmosistype (Low-EEO) agarose (Sigma, St Louise Mo.) and a final concentration of 0.02% (v/v) Tween 20 (Sigma). The underlay was poured into a Ø85 mm petri dish. After agarose solidified, 4 mm-diameter wells were punched and 6 μl of test sample was added to each well. Plates were incubated at 37° C. for 3 hours to allow diffusion of the peptides. […]

The next series concerns S.aureus ATCC 29213. In words: Radial diffusion assay (RDA), S. aureus. It is filed as cell-based, Staphylococcus aureus. The following applies: zone of bacterial clearance in RDA; unit mm only in FIG. 1 legend, not in Table 2A. As for the experimental part:
as §2, §3, §4

Series [4] in a line: Antimicrobial activity stated in text, microorganism not specified. As to conditions: statement in words, no organism or method given. It is filed as cell-based.
In the next series the test system is Erythrocytes. In words: Hemolysis assay. In kind it is cell-based. The following applies: % of Triton X-100 induced hemolysis; 1 h at 37° C.; peptides 3-60 μM, concentration for table not stated. As for the experimental part: EDTA-blood was centrifuged at 800 g for 10 min, whereafter plasma and buffy coat were removed. The erythrocytes were washed three times and resuspended in 5% PBS, pH 7.4. The cells were then incubated with end-over-end rotation for 1 h at 37° C. in the presence of peptides (3-60 μM). 2% Triton X-100 (Sigma-Aldrich) served as positive control. The samples were then centrifuged at 800 g for 10 min. The absorbance of hemoglobin release was measured at λ 540 nm and is in the plot expressed as % of TritonX-100 induced hemolysis (FIG. 2).

Experimental findings from patent publication US8076286B2, “Antimicrobial peptides and use thereof” (priority 2006, dated 2011) are described below.

Ends that are not written are not given here.

As for “CQKRYRGHKITHKMIC (listed as Homo sapiens) [CQK16, FA11_HUMAN aa 545-560]”, in series [1], the “CF leakage PC + NaCl” value is recorded as 14 ± 4% and the “CF leakage PC − NaCl” value was 64 ± 3%. Besides, in series [2], the “CF leakage PA + NaCl” value was determined as 15 ± 2% and the “CF leakage PA − NaCl” value was determined as 18 ± 5%. In series [3], the “Helical content, PA” value was 8 ± 2%; the “Helical content, PC” value came out at 10 ± 2%; the “Helical content, Buffer” value is on record as 10 ± 2%.
As for “SEKTLRKWLKMFKKRQLELY (listed as Homo sapiens) [SEK20]”, in series [1], the “CF leakage PC + NaCl” value is 17 ± 5% and the “CF leakage PC − NaCl” value was determined as 98 ± 2%. Besides, in series [2], the “CF leakage PA + NaCl” value was determined as 16 ± 1% and the “CF leakage PA − NaCl” value came out at 64 ± 2%. Further, in series [3], the “Helical content, PA” value is recorded as 38 ± 4%; the “Helical content, PC” value was 34 ± 4%; the “Helical content, Buffer” value is listed as 14 ± 2%.
As to `CC(C)C[C@H](NC(=O)[C@H](Cc1c[nH]c2ccccc12)NC(=O)[C@H](CCCCN)NC(=O)[C@H](CCCCN)NC(=O)[C@H](CC(C)C)NC(=O)[C@H](CCCNC(=N)N)NC(=O)[C@H](Cc1ccccc1)NC(=O)[C@@H](N)CC(C)C)C(=O)N[C@@H](CCC(N)=O)C(=O)N[C@@H](CCCCN)C(=O)N[C@H](C(=O)N[C@H](C(=O)N[C@@H](CCCCN)C(=O)N[C@@H](CCC(N)=O)C(=O)N[C@@H](Cc1ccccc1)C(=O)NCC(=O)N[C@@H](CCC(=O)O)C(=O)O)[C@@H](C)O)C(C)C` [SEQ ID NO:34, LFRIKKWLQKVTKQFGE], the “Bacteria E.coli ATCC 25922 Mean” value in the series on E.coli ATCC 25922 is 6.65 mm. The “Bacteria S.aureus ATCC 29213 Mean” value with S.aureus ATCC 29213 amounted to 4.75 mm.
As to “GKYGIYTKVSRYVNWIKEKTKLT (listed as Homo sapiens) [GKY23, FA9_HUMAN aa 439-461]”, in series [1], the “CF leakage PC + NaCl” value is on record as 19 ± 1% and the “CF leakage PC − NaCl” value is reported as 86 ± 7%. Besides, in series [2], the “CF leakage PA + NaCl” value is 30 ± 5% and the “CF leakage PA − NaCl” value turned out to be 86 ± 4%. Besides, in series [3], the “Helical content, PA” value stood at 29 ± 2%; the “Helical content, PC” value stood at 21 ± 2%; the “Helical content, Buffer” value came to 7 ± 2%.
For “LFRLKKWIRKVTRLFG [SEQ ID NO:9, LFRLKKWIRKVTRLFG]”, the “Bacteria E.coli ATCC 25922 Mean” value with E.coli ATCC 25922 came out at 11.03 mm. For the same compound, in the series on S.aureus ATCC 29213, the “Bacteria S.aureus ATCC 29213 Mean” value amounted to 8.59 mm. Moreover, the antimicrobial effect result in series [4] was “displayed antimicrobial activity”.
As for `CC[C@H](C)[C@H](NC(=O)[C@H](CCCCN)NC(=O)[C@H](CCC(=O)O)NC(=O)[C@H](CCCCN)NC(=O)[C@H](CO)NC(=O)[C@H](CCCCN)NC(=O)[C@H](CCCNC(=N)N)NC(=O)[C@H](Cc1ccccc1)NC(=O)[C@H](Cc1ccccc1)NC(=O)[C@H](CC(=O)O)NC(=O)CNC(=O)[C@H](CC(C)C)NC(=O)[C@@H](N)CC(C)C)C(=O)NCC(=O)N[C@@H](CCCCN)C(=O)N[C@@H](CCC(=O)O)C(=O)N[C@@H](Cc1ccccc1)C(=O)N[C@@H](CCCCN)C(=O)N[C@@H](CCCNC(=N)N)C(=O)N[C@H](C(=O)N[C@H](C(=O)N[C@@H](CCC(N)=O)C(=O)N[C@@H](CCCNC(=N)N)C(=O)N[C@H](C(=O)N[C@@H](CCCCN)C(=O)N[C@@H](CC(=O)O)C(=O)N[C@@H](Cc1ccccc1)C(=O)N[C@@H](CC(C)C)C(=O)N[C@@H](CCCNC(=N)N)C(=O)N[C@@H](CC(N)=O)C(=O)N[C@@H](CC(C)C)C(=O)N[C@H](C(=O)N1CCC[C@H]1C(=O)N[C@@H](CCCNC(=N)N)C(=O)N[C@H](C(=O)N[C@@H](CCC(=O)O)C(=O)N[C@@H](CO)C(=O)O)[C@@H](C)O)C(C)C)[C@@H](C)CC)C(C)C)[C@@H](C)CC` [LL-37], the “Erythrocytes Hemolysis (%) Mean” value in the series with Erythrocytes is reported as 16.43%.
Consider “NWRENLDRDIALMKLKKP (listed as Homo sapiens) [NVR18]”, for which, in series [1], the “CF leakage PC + NaCl” value came to 0 ± 1% and the “CF leakage PC − NaCl” value came to 4 ± 1%. In series [2], the “CF leakage PA + NaCl” value stood at 0 ± 1% and the “CF leakage PA − NaCl” value is recorded as 2 ± 1%.
